# Data reported in US20190292577A1, “COMPOSITIONS AND METHOD FOR THE TREATMENT OF ACNE” (ProdermIQ, Inc., priority 2018, published 2019).
# Columns and labels:
# P. acnes = experiment: Skin microbiome profiling, benzoyl peroxide versus no benzoyl peroxide; format: in vivo, Propionibacterium acnes; conditions: benzoyl peroxide applied versus no benzoyl peroxide, FIG. 3
# Excerpt: (§1) Described herein are findings of a study of individuals comprising preadolescent females with acne, and changes in the microbiomes of the individuals with the use of benzoyl peroxide wash. Flora was taken from different areas of the faces of the individuals and studied for sensitivity to benzoyl peroxide. Inclusion criteria of the study for which results are provided herein include: • 1. Minimum of 6 acne lesions present. • 2. No prior use of prescription acne product. • 3. No prior use of over-the-counter benzoyl peroxide anti-acne agent. • 4. Ages: 7-12 • 5. Sex: Female Exclusion criteria of the study for which results are provided herein include: • 1. Significant active skin conditions on the face other than acne vulgaris (may include atopic dermatitis, psoriasis, or others). • 2. Use of oral or parenteral antibiotics within 3 months prior to the study. Sites from which samples were taken along with abbreviations for each include: • RA or RAL: Retroauricular Behind Ear • CH or CHN: Chin • CK or CKN: Cheek • FH or FHN: Forehead • AN or ANN: Ala Nasal [Outside of Nose] • CO or CON: Comedone In some embodiments, the skin microbiome of an individual subject is evaluated. Individual microbiomes vary greatly across subjects and regions of the skin. […] Samples were taken from locations on the heads of the individuals including behind the ear, chin, cheek, forehead, and outside the nose. […]
# S. mitis = experiment: as above; format: in vivo; conditions: benzoyl peroxide applied versus no benzoyl peroxide, FIG. 3
# Excerpt: as §1
# skin microbiome = experiment: Site specific and overall effect of benzoyl peroxide on the skin microbiome; format: in vivo, human
# Excerpt: as §1
# C2 P. acnes strain = experiment: P. acnes strain profiling before and after benzoyl peroxide treatment; format: in vivo, Propionibacterium acnes; conditions: after benzoyl peroxide treatment, FIG. 39
# Procedure: A group of subjects with P. acnes populations were treated with benzoyl peroxide and divided into 3 cohorts based on the effectiveness of the treatment. Subjects in the “Decrease Cohort” experienced a decrease in P. acnes populations, subjects in the “Increase Cohort” experienced an increase in P. acnes populations, and the “Flat Cohort” experienced non-measureable variance in P. acnes populations. […] Shown is the mean proportion of P. acnes across “Increase”, “Decrease”, and “Flat” cohort. […] The Al P. acnes across is differentiated between “Increase” and “Decrease” cohort. […] The K4 & C3 P. acnes is differentiated between “Increase” and “Decrease” cohort. […] The F4 & D1 P. acnes is differentiated between “Increase” and “Decrease” cohort. […] […] The K4 and A2 P. acnes strains are more prevalent in “Decrease” cohort while the K1 strain is more prevalent in “Increase” cohort.
smiles,measurement,setting,value
O=C(OOC(=O)c1ccccc1)c1ccccc1 [benzoyl peroxide],P. acnes levels within the microbiome,P. acnes,decreased
same,S. mitis relative proportion in the microbiome,S. mitis,increased
same,Skin site impacted the most by benzoyl peroxide,"skin microbiome; among all sites tested, from the site specific prediction models of Table 2",cheek gets impacted the most
same,Impact on overall microbiome diversity,skin microbiome; benzoyl peroxide treatment,does not impact the overall microbiome diversity
same,Prevalence of the C2 P. acnes strain after treatment,C2 P. acnes strain,becomes more prevalent
